Test results taken from ChEMBL document CHEMBL3108760, “Epigallocatechin 3-O-gallate induces 67 kDa laminin receptor-mediated cell death accompanied by downregulation of ErbB proteins and altered lipid raft clustering in mammary and epidermoid carcinoma cells” (J Nat Prod, 2014).
Active and inactive are the calls of the source. The calls are words filed in the database; no cut-off is given here.

Experiments:
A-431 [1] = test: Downregulation of ErbB1 protein expression in human A431 cells in serum free medium at 200 uM after 30 mins by immunofluorescence staining-based confocal microscopic analysis; type: functional, cell-based
A-431 [2] = test: Cell cycle arrest in human A431 cells at 50 to 75 uM after 36 hrs by propidium iodide staining-based flow cytometric analysis; type: functional
[3] = Downregulation of ErbB2 protein expression in human SKBR3 cells in serum free medium at 50 uM after 24 hrs by immunofluorescence staining-based flow cytometric analysis; type: functional, cell-based; conditions: SK-BR-3
[4] = Antiproliferative activity against human SKBR3 cells overexpressing ErbB in complete medium assessed as cell viability after 48 hrs by WST-1 assay; type: functional, cell-based; conditions: SK-BR-3, 48 h
A-431 [5] = test: Antiproliferative activity against human A431 cells overexpressing ErbB in serum-free medium assessed as cell viability after 48 hrs by WST-1 assay; type: functional, cell-based; conditions: A-431, 48 h
[6] = Cell cycle arrest in human SKBR3 cells at 50 to 75 uM after 36 hrs by propidium iodide staining-based flow cytometric analysis; type: functional; conditions: SK-BR-3
[7] = Downregulation of ErbB2 protein expression in human SKBR3 cells at 50 uM after 24 hrs by immunofluorescence staining-based flow cytometric analysis in presence of serum; type: functional, cell-based; conditions: SK-BR-3
A-431 [8] = test: Ratio of EC50 for human A431 cells overexpressing ErbB in complete medium to EC50 for human A431 cells overexpressing ErbB in serum-free medium; type: functional
[9] = target: Receptor tyrosine-protein kinase erbB-2 (Homo sapiens) (UniProt P04626); test: Induction of ErbB2 internalization in lysosome/endosome of human SKBR3 cells in serum free medium at 200 uM after 30 mins by immunofluorescence staining-based confocal microscopic analysis; type: cell-based; conditions: SK-BR-3
[10] = target: Receptor tyrosine-protein kinase erbB-2 (Homo sapiens) (UniProt P04626); test: Induction of ErbB2 internalization in lysosome/endosome of human A431 cells in serum free medium at 200 uM after 30 mins by immunofluorescence staining-based confocal microscopic analysis; type: cell-based; conditions: A-431
A-431 [11] = test: Induction of apoptosis in human A431 cells overexpressing ErbB in complete medium assessed as late apoptotic/necrotic cells at 75 uM after 72 hrs by annexin V-FITC/7-AAD staining-based flow cytometric analysis relative to control; type: functional
[12] = Antiproliferative activity against human SKBR3 cells overexpressing ErbB in serum-free medium assessed as cell viability after 48 hrs by WST-1 assay; type: functional, cell-based; conditions: SK-BR-3, 48 h
[13] = target: Small ribosomal subunit protein uS2 (Homo sapiens) (UniProt P08865); test: Inhibition of 67LR co-localization in lipid rafts containing cholera toxin labeled GM1 gangliosides in human A431 cells after 30 mins by immunofluorescence-based confocal microscopic analysis (reference value: 75%); type: cell-based; conditions: A-431
A-431 [14] = test: Downregulation of ErbB1 protein expression in human A431 cells in serum free medium at 50 uM after 24 hrs by immunofluorescence staining-based flow cytometric analysis; type: functional
A-431 [15] = test: Reduction of clustering of GFP-GPI in lipid rafts of human A431 cells at 100 uM after 12 hrs by confocal microscopic analysis; type: functional, cell-based
A-431 [16] = test: Antiproliferative activity against anti-67LR treated human A431 cells overexpressing ErbB assessed as cell viability at 100 to 200 uM after 24 hrs by WST-1 staining-based spectrophotometric analysis; type: functional
SK-BR-3 [17] = test: Reduction of clustering of GFP-GPI in lipid rafts of human SKBR3 cells at 100 uM after 12 hrs by confocal microscopic analysis; type: functional, cell-based
A-431 [18] = test: Downregulation of ErbB1 protein expression in human A431 cells at 50 uM after 24 hrs by immunofluorescence staining-based flow cytometric analysis in presence of serum; type: functional, cell-based
[19] = Downregulation of ErbB2 protein expression in human SKBR3 cells in serum free medium at 200 uM after 30 mins by immunofluorescence staining-based confocal microscopic analysis; type: functional, cell-based; conditions: SK-BR-3
SK-BR-3 [20] = test: Induction of apoptosis in human SKBR3 cells overexpressing ErbB in complete medium assessed as late apoptotic/necrotic cells at 75 uM after 72 hrs by annexin V-FITC/7-AAD staining-based flow cytometric analysis relative to control; type: functional
SK-BR-3 [21] = test: Ratio of EC50 for human SKBR3 cells overexpressing ErbB in complete medium to EC50 for human SKBR3 cells overexpressing ErbB in serum-free medium; type: functional
A-431 [22] = test: Antiproliferative activity against human A431 cells overexpressing ErbB in complete medium assessed as cell viability after 48 hrs by WST-1 assay; type: functional, cell-based; conditions: A-431, 48 h
A-431 [23] = test: Induction of apoptosis in human A431 cells overexpressing ErbB in complete medium assessed as late apoptotic/necrotic cells at 50 to 75 uM after 72 hrs by annexin V-FITC/7-AAD staining-based flow cytometric analysis; type: functional, cell-based
A-431 [24] = test: Cell cycle arrest in human A431 cells assessed as decrease in accumulation at G0/G1 phase at 50 to 75 uM after 36 hrs by propidium iodide staining-based flow cytometric analysis; type: functional
SK-BR-3 [25] = test: Induction of apoptosis in human SKBR3 cells overexpressing ErbB in complete medium assessed as late apoptotic/necrotic cells at 50 to 75 uM after 72 hrs by annexin V-FITC/7-AAD staining-based flow cytometric analysis; type: functional, cell-based
[26] = Cell cycle arrest in human SKBR3 cells assessed as decrease in accumulation at G0/G1 phase at 50 to 75 uM after 36 hrs by propidium iodide staining-based flow cytometric analysis; type: functional; conditions: SK-BR-3
[27] = Cell cycle arrest in human SKBR3 cells assessed as accumulation at G2/M phase at 50 to 75 uM after 36 hrs by propidium iodide staining-based flow cytometric analysis relative to control; type: functional; conditions: SK-BR-3
A-431 [28] = test: Cell cycle arrest in human A431 cells assessed as accumulation at G2/M phase at 50 to 75 uM after 36 hrs by propidium iodide staining-based flow cytometric analysis relative to control; type: functional

Chain of Receptor tyrosine-protein kinase erbB-2 (Homo sapiens) (P04626 whole entry): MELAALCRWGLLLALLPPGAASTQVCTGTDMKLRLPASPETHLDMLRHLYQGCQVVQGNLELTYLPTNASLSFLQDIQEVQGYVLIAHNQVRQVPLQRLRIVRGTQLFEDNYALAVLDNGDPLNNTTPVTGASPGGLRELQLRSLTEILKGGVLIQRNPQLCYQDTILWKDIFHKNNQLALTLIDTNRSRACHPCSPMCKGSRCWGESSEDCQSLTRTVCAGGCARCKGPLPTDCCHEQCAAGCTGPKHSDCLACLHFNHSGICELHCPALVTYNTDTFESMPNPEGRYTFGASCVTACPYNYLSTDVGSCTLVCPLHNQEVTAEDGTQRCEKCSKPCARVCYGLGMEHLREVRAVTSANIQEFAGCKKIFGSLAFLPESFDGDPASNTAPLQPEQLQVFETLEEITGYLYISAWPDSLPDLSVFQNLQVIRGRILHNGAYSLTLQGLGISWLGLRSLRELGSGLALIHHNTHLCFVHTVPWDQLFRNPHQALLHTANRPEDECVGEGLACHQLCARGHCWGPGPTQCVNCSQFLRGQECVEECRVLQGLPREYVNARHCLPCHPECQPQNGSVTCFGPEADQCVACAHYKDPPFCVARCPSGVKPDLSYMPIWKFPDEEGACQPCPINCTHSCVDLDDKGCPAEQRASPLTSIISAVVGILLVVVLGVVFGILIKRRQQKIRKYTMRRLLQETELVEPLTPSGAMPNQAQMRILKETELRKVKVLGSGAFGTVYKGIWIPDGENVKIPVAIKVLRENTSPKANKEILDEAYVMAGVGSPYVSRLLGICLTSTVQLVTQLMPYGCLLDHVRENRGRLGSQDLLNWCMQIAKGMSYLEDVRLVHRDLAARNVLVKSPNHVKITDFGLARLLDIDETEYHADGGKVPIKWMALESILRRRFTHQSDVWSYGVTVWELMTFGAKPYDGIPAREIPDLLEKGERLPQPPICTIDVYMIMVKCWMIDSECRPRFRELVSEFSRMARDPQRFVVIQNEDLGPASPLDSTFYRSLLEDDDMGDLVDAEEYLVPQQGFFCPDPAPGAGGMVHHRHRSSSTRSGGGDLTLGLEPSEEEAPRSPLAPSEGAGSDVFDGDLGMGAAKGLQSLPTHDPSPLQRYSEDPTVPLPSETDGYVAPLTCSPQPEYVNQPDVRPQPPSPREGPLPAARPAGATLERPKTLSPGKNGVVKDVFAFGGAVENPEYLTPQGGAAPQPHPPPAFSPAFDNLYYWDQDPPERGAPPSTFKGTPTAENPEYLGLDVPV

SMILES | Activity [3] | EC50 [4] | EC50 (A-431 [5]) | Ratio EC50 (A-431 [8]) | EC50 [12] | Activity (A-431 [14]) | Activity (A-431 [15]) | Activity (SK-BR-3 [17]) | Ratio EC50 (SK-BR-3 [21]) | EC50 (A-431 [22]) | other results
O=C(O[C@@H]1Cc2c(O)cc(O)cc2O[C@@H]1c1cc(O)c(O)c(O)c1)c1cc(O)c(O)c(O)c1 [EPIGALOCATECHIN GALLATE] | 30% | 195 µM | 38 µM | 2 | 100 µM | 30% | Active | Active | 2 | 266 µM | Activity (A-431 [1]): Active; Activity (A-431 [2]): inactive; Activity [6]: inactive; Activity [7]: inactive; Activity [9]: Active; Activity [10]: Active; Activity (A-431 [11]): 80%; inhibition [13]: 47%; Activity (A-431 [16]): inactive; Activity (A-431 [18]): inactive; Activity [19]: Active; Activity (SK-BR-3 [20]): 40%
O=c1c(-c2ccc(O)cc2)coc2cc(O)cc(O)c12 [GENISTEIN] | inactive | 403 µM | 108 µM | 2 | 97 µM | inactive | inactive | inactive | 2 | 278 µM | Activity (A-431 [23]): Active; Activity (A-431 [24]): Active; Activity (SK-BR-3 [25]): inactive; Activity [26]: Active; Activity [27]: 50%; Activity (A-431 [28]): Active
